Results on five molecules are retold here after publication PMC8201479, “Trisubstituted Pyrrolinones as Small-Molecule Inhibitors Disrupting the Protein–RNA Interaction of LIN28 and Let-7” (ACS Medicinal Chemistry Letters, 2021).

By IC50 is commonly meant the midpoint of a concentration-inhibition curve.

In data set [1] the target is T1, LIN28–let-7 interaction (Homo sapiens, UniProt Q9H9Z2).
T1 construct: Purified LIN28A (residues 16–187) was incubated at a concentration of 200 nM; His-tag (cleaved yes); made in house; host or cells: Escherichia coli BL21(DE3)
T1 sequence (Q9H9Z2 16-187): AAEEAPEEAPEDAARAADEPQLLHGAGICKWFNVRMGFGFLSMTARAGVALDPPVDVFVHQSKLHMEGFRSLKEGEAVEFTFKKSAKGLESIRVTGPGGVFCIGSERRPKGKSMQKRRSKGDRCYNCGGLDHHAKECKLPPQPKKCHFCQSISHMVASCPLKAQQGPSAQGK
Nature of the data set: Fluorescence polarization (FP) assay, LIN28A (residues 16–187) and FAM-labeled preE-let-7f-1. It counts as binding. As to conditions: for IC50: text and figures, C-labels = library sample, PH-labels = in-house resynthesized, read-out: IC50 in the FP assay. As to the method:
Protein expression and purification.
19 vector and overexpressed in Escherichia coli BL21(DE3). The culture was incubated at 37 °C until
the absorbance at 600 nm (OD600) reached 0.5–0.7. IPTG was added to a final concentration of
300 µM, and overnight induction was performed at 18 °C. Cells were harvested by centrifugation.
The bacterial pellet was resuspended in lysis buffer (50 mM NaH2PO4, pH 7.5, 300 mM NaCl,
0.1 mM PMSF) and lysed using a Microfluidizer (Microfluidics) . A fresh portion of 0.1 mM PMSF
and Triton X-100 (1% final concentration) were added. The lysate was cleared by ultra centrifugation
at 30000 xg and 4 °C for 1 h. The protein purification was performed using immobilized nickel
300 mM NaCl and 5 % glycerol. Gradient elution was performed with a maximum of 0.5 M imidazole.
Subsequently, the affinity tag was cleaved using His6 -TEV-protease and the protease and unspecific
binders were eliminated by a second nickel affinity chromatography. After protein concentration
LIN28A containing fractions were concentrated and applied to a High Load Superdex 75 pg 16/600
column (GE Healthcare) with gel-filtration buffer (30 mM NaH2PO4, pH 7.5, 50 mM NaCl, 5%
glycerol, 2 mM β-ME). The purified protein was concentrated and stored at -80 °C until further
Fluorescence polarization. The fluorescence polarization assay was performed in black low volume
IC50 measurements were performed with three technical
minutes with compound concentrations ranging from 0.3 nM to 100 µM in FP assay buffer (20 mM
Tris, pH 7, 100 mM NaCl, 5 mM MgCl2, 2 mM glutathione (reduced), 0.1 % NP-40). Subsequently,
FAM-labeled preE-let-7f-1 (mus musculus) ([…]-
FAM, synthesized by IDT) was added to a final concentration of 2 nM. Fluorescence polarization
(§1) was detected after incubation at room temperature using a TECAN Spark plate reader. Half maximal
inhibitory concentrations (IC50) were determined using GraphPad Prism 7. […]
On the technique in general: Polarisation of emitted light reports the rotation of a fluorescent probe.

A further data set deals with T2, LIN28–let-7 complex (Homo sapiens, UniProt Q9H9Z2).
T2 construct: Purified LIN28A (residues 16–187) was incubated at a concentration of 200 nM; His-tag (cleaved yes); made in house; host or cells: Escherichia coli BL21(DE3)
T2 sequence (Q9H9Z2 16-187): T1 sequence (Q9H9Z2 16-187)
Nature of the data set: Electrophoretic mobility shift assay (EMSA). Type of data set: binding. As to conditions: compound concentrations up to 75 µM. How it is done: as §1
inhibitory concentrations (IC50) were determined using GraphPad Prism 7.
Compound screening. High throughput screening was performed in low volume 384 well plates
(Corning 4514) with 30 µM compound, 40 nM LIN28A, and 2 nM preE-let-7f-1-FAM in FP assay
buffer. Compounds were transferred with an ECHO 520 liquid handler and protein and RNA were
added with a multidrop dispenser. Protein and RNA were added stepwise with a 30 min incubation
period in between. FP was detected after a final incubation of 15 min with an Envision plate reader
and fluorescence was measured with a Paradigm plate reader. A reaction without LIN28 served as a
negative control and one without compound was used as a positive control. The software Quattro
Workflow (Quattro Research GmbH) was used for the analysis of screening data.
Electrophoretic mobility shift assay. EMSA was used as a secondary assay to validate FP-assay hit
molecules. Purified LIN28A (residues 16–187) was incubated with compound and 5 U recombinant
ribonuclease inhibitor (Takara Bio) in EMSA reaction buffer (50 mM Tris (pH 7.5), 100 mM NaCl,
10 mM β-mercaptoethanol, 50 µM ZnCl2, 2 % DMSO, 0.01 % Tween 20, 12 % glycerol) for 2 hours
at room temperature. Subsequently, preE-let-7f-1-Cy3 (mus musculus) (GGGGUAGUGAUUUUAC
CCUGUUUAGGAGAU-Cy3, purchased from IDT) was added to a final concentration of 5 nM and
a reaction volume of 50 µL. The final concentration of LIN28A was 10 nM and compound
concentrations up to 75 µM were used. The reaction mixtures were incubated for a further 15 minutes
and 10 µL loading dye (40 % glycerol, 1.5x TAE) was added. 10 µL of each reaction was separated
in an 8 % polyacrylamide TAE gel at 4 °C and 220 V for 1 h using 0.25x TAE as running buffer. Cy3
fluorescence was detected with a ChemiDoc M P (Bio-Rad) and 2 minutes of exposure time.
Thermal shift assay. Thermal stability of the cold shock domain construct LIN28 A (residues 16–
126) with and without compound was monitored using a NanoTemper Prometheus NT.48 nano -
(Mobility shift assays separate free from complexed probe on a gel.)

For data set [2], the target named is T1, LIN28–let-7 interaction. Nature of the data set: Fluorescence polarization (FP) assay, LIN28A (residues 16–187) and FAM-labeled preE-let-7f-1. The settings on record: for IC50: Table 1, quadruplicate, eight concentrations, read-out: IC50, LIN28–let-7 inhibitory activity; for FP, Average (mP): raw data Table S3, four replicates. Type of data set: binding.
The test system of data set [3] is LIN28. Also on record: method as in PMID 27668966. As to conditions: reported value; cited from earlier work.
The test system of data set [4] is LIN28. More on the design: method as in PMID 27548809. The settings on record: reported value; read-out: IC50 (ELISA); cited from earlier work. In general terms: An ELISA detects its analyte on a solid surface through an enzyme-linked reagent.
Data set [5] has as its target T3, LIN28A (16-187), untagged (human, UniProt Q9H9Z2 16-187).
T3 sequence: T1 sequence (Q9H9Z2 16-187)
The data set can be described thus: competition (fluorescence polarization); competes with 2 nM FAM-preE-let-7f-1; FP: 20 mM Tris pH 7, 100 mM NaCl, 5 mM MgCl2, 2 mM GSH, 0.1% NP-40 (200 nM LIN28A, 2 nM RNA in IC50 assays); EMSA: 50 mM Tris pH 7.5, 100 mM NaCl, 10 mM beta-ME, 50 uM ZnCl2, 2% DMSO, 0.01% Tween 20, 12% glycerol, 2 h, room temperature. As to conditions: protein: recombinant; tags: none (His-tag cleaved by TEV); stem loop.

Where two headings read alike, the source gives them in different places.

On to `O=C(O)c1cccc(N2C(=O)C(O)=C(C(=O)c3ccc(Br)cc3)C2c2ccc(-c3nccs3)cc2)c1` (centres unmarked) [C903], for which, on LIN28–let-7 interaction [1], the “activity in the FP assay” value was “FP-inactive”. For the same molecule, the “inhibition of the LIN28–let-7 complex in EMSA” value at LIN28–let-7 complex is reported as “did not show activity”. Moreover, at LIN28–let-7 interaction [2] (starting from 30 μM, extrapolated based on the observed IC50 curves), the IC50 is more than 100 µM.

With `CC1(C)Oc2cc(N3CCN(C(=O)OCc4ccccc4)CC3)c([N+](=O)[O-])cc2-c2c1cnn2-c1ccc(C(=O)O)cc1` [SB1301, reference compound], the IC50 on LIN28–let-7 interaction [1] was 27 µM; in the data set with LIN28 [3], 4 µM.

For `O=C(O)c1ccc(C2C(C(=O)c3ccccc3)=C(O)C(=O)N2c2ccc(O)c(C(=O)O)c2)cc1` (centres unmarked) [C880/PH-39], the IC50 was less than 30 µM on LIN28–let-7 interaction [1] and 6 µM on LIN28–let-7 interaction [2] (starting from a maximum concentration of 60 μM). Besides, the “FP, Average (mP)” value on LIN28–let-7 interaction [2] (0.041 μM compound) stood at 111.50 mP; at LIN28–let-7 interaction [2] (0.123 μM compound) it was 113.50 mP; at LIN28–let-7 interaction [2] (0.368 μM compound), 115.75 mP; at LIN28–let-7 interaction [2] (1.103 μM compound) it was 112.00 mP; on LIN28–let-7 interaction [2] (3.125 μM compound), 91.63 mP; on LIN28–let-7 interaction [2] (9.375 μM compound), 55.98 mP. Besides, the “FP, Average (mP)” value at LIN28–let-7 interaction [2] (29.688 μM compound) was 41.63 mP; at LIN28–let-7 interaction [2] (59.375 μM compound), 45.53 mP.

Take `CC(=O)N(C)c1cccc(-c2ccc3nnc(C)n3n2)c1` [compound 1632]: the IC50 with LIN28 [4] was 8 µM.

For the molecule GGGGUAGUGAUUUUACCCUGUUUAGGAGAU (structured_RNA) [preE-let-7f-1, unlabeled], in data set [5], the IC50 stood at 0.055 µM.
